PubChem BioAssay (NCI)
Values joined by “and” are separate entries in the source; they are usually repeats but may differ in a detail not shown here. Identical values can stand only once.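 Step 1: Grow cells in 96-well plates. Step 2: Expose to compound for 48 hours at 5 concentrations. Step 3: Interpolate endpoints linearly; if unreached, use highest concentration. Here, GI50 denotes the concentration required for 50% inhibition of growth. The concentration for full growth arrest is given as TGI.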

Columns and labels:
Assay in all cases: growth of human tumour cells (NCI), 48 h
U251 CNS = tested on: U251 CNS
NCI-H460 lung = tested on: NCI-H460 lung
MOLT-4 leukemia = tested on: MOLT-4 leukemia
UACC-257 melanoma = tested on: UACC-257 melanoma
CAKI-1 renal = tested on: CAKI-1 renal
SW-620 colon = tested on: SW-620 colon
UO-31 renal = tested on: UO-31 renal
SF-539 CNS = tested on: SF-539 CNS
IGROV1 ovarian = tested on: IGROV1 ovarian
SR leukemia = tested on: SR leukemia

Row | Compound | GI50 (U251 CNS) | TGI (U251 CNS) [µM] | GI50 (NCI-H460 lung) | TGI (NCI-H460 lung) [µM] | GI50 (MOLT-4 leukemia) | TGI (MOLT-4 leukemia) [µM] | GI50 (UACC-257 melanoma) [µM] | TGI (UACC-257 melanoma) [µM] | GI50 (CAKI-1 renal) | TGI (CAKI-1 renal) [µM] | GI50 (SW-620 colon) | TGI (SW-620 colon) [µM] | GI50 (UO-31 renal) | TGI (UO-31 renal) [µM] | GI50 (SF-539 CNS) | TGI (SF-539 CNS) | GI50 (IGROV1 ovarian) | TGI (IGROV1 ovarian) [µM] | TGI (SR leukemia) [µM] | GI50 (SR leukemia)
1 | O=C(Nc1ccc(F)cc1)c1cc(S(=O)(=O)Nc2nc3ccccc3o2)c(SCc2ccccc2)cc1Cl | 17.3 µM | 31.7 | 19.1 µM | 43.5 | 19500 nM | 52.4 | 13.5 | 28.4 | 18.4 µM | 37.7 | 17.6 µM | 33.3 | 14.1 µM | 29.2 | 17.1 µM | 31.2 µM | 0.611 µM | 21.3 | – | –
2 | [N-]=[N+]=Nc1cc(=O)[nH]nc1-c1ccccc1 | – | > 100 | – | > 100 | – | > 100 | – | > 100 | – | – | – | > 100 | – | > 100 | – | > 100 µM | – | > 100 | > 100 | –
3 | Cc1cccc(C)c1NC(=O)C(=O)C(C(=O)c1ccccc1-c1ccccc1)C1OC(=O)c2ccccc21 (stereo unspecified) | – | 30.7 | – | 78.2 | – | 58.1 | – | > 100 | – | – | – | 65.2 | – | 57.6 | – | 28.3 µM | – | 64.1 | – | –
4 | COc1ccc(-n2c(C)cc(-c3ccccc3)c2C)cc1 | 2.87 µM | 25.4 | 3.13 µM | 18.9 | – | – | 2.33 | 7.51 | 1.57 µM | 7.55 | 2.14 µM | 12.5 | 2.24 µM | 95.8 | 2.96 µM | 17.4 µM | 4.23 µM | 34.8 | 5.75 | 1300 nM
5 | CSc1ccc2c(c1)C(=O)c1c-2n(CCCBr)c(=O)c2cc([N+](=O)[O-])ccc12 | 1.98 µM | > 100 | 0.547 µM | > 100 | 558 nM | 17 | > 100 | > 100 | 1.09 µM | 8.94 | 4.04 µM | > 100 | 3.63 µM | > 100 | 4.59 µM | > 100 µM | 12.1 µM | > 100 | – | –
6 | COc1cc2c3c(n(CCCOC(=O)C(F)(F)F)c(=O)c2cc1OC)-c1cc2c(cc1C3=O)OCO2 | < 0.01 µM | 1.07 | 3 µM | > 100 | – | – | – | – | < 0.01 µM | – | – | > 100 | < 0.01 µM | > 100 | < 0.01 µM | 0.0699 µM | 0.555 µM | > 100 | – | –
7 | Cc1nc([N+](=O)[O-])cn1CC(=N)N | – | > 100 | – | > 100 | – | > 100 | – | > 100 | – | – | – | > 100 | – | > 100 | – | > 100 µM | – | > 100 | > 100 | –
8 | COc1cc2c(c(OC)c1OC)-c1ncc3cc4c(cc3c1C2)OCO4 | 21.6 µM | 54.2 | 15.5 µM | 38.2 | – | – | – | – | 18 µM | 71.7 | 18.6 µM | 60.5 | 12.5 µM | 74.6 | – | – | 12.8 µM | > 100 | – | –
9 | Cc1cc(NS(=O)(=O)c2ccc(Nc3c4ccccc4nc4c(C(=O)N5CCN(CCO)CC5)ccc(Cl)c34)cc2)no1 | – | > 100 | – | > 100 | – | > 100 | – | > 100 | – | > 100 | – | – | – | > 100 | – | > 100 µM | – | > 100 | – | –
10 | CCCN1CN(C(C(=O)N[C@@H]2C(=O)N3C2SC(C)(C)C3C(=O)O)c2ccc(O)cc2)CSC1=S (stereo partly specified) | – | > 100 | – | > 100 | – | > 100 | – | > 100 | – | > 100 | – | – | – | > 100 | – | > 100 µM | – | > 100 | – | –
11 | Cc1ccc(C)c(N=C2NC(=O)C(CC(=O)Nc3ccc(Cl)cc3Cl)S2)c1 (stereo unspecified) | – | > 100 | – | > 100 | – | > 100 | – | > 100 | – | > 100 | – | > 100 | – | > 100 | – | > 100 µM | – | > 100 | – | –
12 | O=P1(c2ccccc2)CCCCC1 | – | > 100 | – | > 100 | – | > 100 | – | > 100 | – | – | – | – | – | > 100 | – | > 100 µM | – | > 100 | > 100 | –
13 | COc1cc(C(=O)N2CCN(c3ncccn3)CC2)c(N)cc1OCc1ccccc1 | > 100 µM | > 100 | > 100 µM | > 100 | 81600 nM | > 100 | > 100 | > 100 | 11.9 µM | > 100 | > 100 µM | > 100 | > 100 µM | > 100 | – | – | > 100 µM | > 100 | > 100 | > 100000 nM
14 | CC1(C)CC(=O)C(C=NC(=O)c2ccncc2)=C(O)C1 | – | > 100 | – | > 100 | – | > 100 | – | > 100 | – | > 100 | – | > 100 | – | > 100 | – | > 100 µM | – | > 100 | – | –
15 | CN1C(=O)/C(=C/c2c(Cl)n(C)c3ccccc23)c2ccccc21 | 3.7 µM and 1.73 µM | 3.16 | 6.17 µM and 2.84 µM | > 100 | 1880 nM and 245 nM | 0.756 | 4.53 | – | 3.3 µM and 1.43 µM | 2.77 | 5.07 µM | – | 8 µM and 1.24 µM | 2.75 | – | – | 4.34 µM | – | – | –
16 | COC(=O)[C@@H](C)C[C@H](Cc1ccccc1)NC(=O)c1csc([C@@H](C[C@H](C(C)C)N(C)C(=O)[C@@H](NC(=O)[C@H]2CCCCN2C)C2CCCCC2)OC(C)=O)n1 | 0.000533 µM and 0.0025 µM | > 25 | 0.000321 µM and 0.0025 µM | > 25 | 5.12 nM and 2.5 nM | 4.87 | – | – | – | – | 0.000424 µM and 0.0025 µM | > 25 | 0.00684 µM and 0.0415 µM | 7.76 | 0.00211 µM and 0.0025 µM | 0.00619 µM and 0.00859 µM | 0.000631 µM and 0.0025 µM | > 25 | 2.9 | 0.274 nM and 2.5 nM
17 | O=C1NC(=O)C(c2cccc([N+](=O)[O-])c2)=C1Nc1cc(Cl)c(O)c(Cl)c1 | > 25 µM | > 25 | > 23.4 µM | > 25 | > 25000 nM | > 25 | – | – | > 20.9 µM | > 25 | > 25 µM | > 25 | > 17.6 µM | > 25 | > 25 µM | > 25 µM | > 25 µM | > 25 | – | –
18 | COc1ncc(-c2ccc3ncnc(Nc4cccc(Cl)c4)c3c2)cc1NS(=O)(=O)C1CC1 | 4.75 µM | > 100 | – | – | – | – | – | – | – | – | > 100 µM | > 100 | – | – | 2.87 µM | > 100 µM | – | – | > 100 | > 100000 nM
19 | CNS(=O)(=O)NNS(=O)(=O)c1ccc(Br)cc1 | – | > 100 | – | > 100 | – | – | – | > 100 | – | > 100 | – | > 100 | – | > 100 | – | > 100 µM | – | > 100 | – | –
20 | COCC1(CO)C(=O)C2CCN1CC2 (stereo unspecified) | > 71 µM | > 100 | > 59 µM | > 100 | 19400 nM | 51.4 | 17.7 | 34 | – | – | 18.1 µM | 37.9 | 15.1 µM | 30 | > 40.7 µM | > 55.7 µM | 18.4 µM | 40.6 | 58.4 | 18400 nM
21 | CN(CCO)c1ccc(N2Cc3ccccc3OC3=C2C(=O)c2c(O)ccc(O)c2C3=O)cn1 | 0.284 µM | 0.82 | 0.355 µM | 1.35 | 135 nM | 1.19 | 0.277 | 0.791 | – | – | 0.0728 µM | 0.328 | 0.0971 µM | 0.304 | 0.214 µM | 0.524 µM | 0.203 µM | 0.636 | – | –
22 | CC1COC(C)(C)P(=O)(c2ccccc2)C1 (stereo unspecified) | – | > 100 | – | > 100 | – | > 100 | – | > 100 | – | – | – | > 100 | – | > 100 | – | > 100 µM | – | > 100 | > 100 | –
23 | NCCSc1nc(-c2ccccc2)c(-c2ccccc2)o1 | – | > 100 | – | > 100 | – | – | – | > 100 | – | > 100 | – | > 100 | – | > 100 | – | > 100 µM | – | > 100 | > 100 | –
24 | Cc1c(/C=N/NC(=O)c2ccc(Cl)cc2)c(=O)n(-c2ccccc2)n1C | – | > 100 | – | > 100 | – | > 100 | – | > 100 | – | – | – | > 100 | – | > 100 | – | > 100 µM | – | > 100 | > 100 | –
25 | O=C(O)CC(NC(=O)CP(=O)(O)O)C(=O)O (stereo unspecified) | – | > 10000 | 79.5 µM | > 8670 | – | 6910 | 3150 | > 10000 | 272 µM | 7240 | – | > 10000 | – | > 10000 | 89.5 µM | > 10000 µM | – | > 8280 | – | –
26 | O=C1c2ccccc2-c2c1c1ccccc1c(=O)n2CCCCl | 11 µM | 31.5 | 3.57 µM | > 100 | 1610 nM | 4.38 | 12.6 | 76.5 | 3.63 µM | 19.1 | 8.75 µM | > 100 | 6.47 µM | 69.2 | 4.11 µM | 21.5 µM | – | – | – | –
27 | CCn1c(=O)c2c(=O)c3c4c(oc3oc2c2ccccc21)C(=O)c1ccccc1C4=O | > 27.1 µM | > 100 | > 100 µM | > 100 | 366 nM | 2.12 | > 100 | > 100 | – | – | > 100 µM | > 100 | > 100 µM | > 100 | 3.32 µM | > 100 µM | > 50.1 µM | > 100 | – | –
